# Data: patent US9868775B2, “Sfrp5-derived peptide fragment and cosmetic composition for skin whitening containing same” (KNU-INDUSTRY COOPERATION FOUNDATION, priority 2014, dated 2018)
# Key:
# tyrosinase [1] = assay: inhibitory activity against tyrosinase activity in B16F10 (L-DOPA, 490 nm); type: cell-based, mouse; details: B16F10, α-MSH, predetermined concentrations, 72 hours, 490 nm (FIG. 4)
# Description: B16F10 cells (Korean Cell Line Bank, Seoul) were added to each well of a 24-well plate (5×10^4 cells per well), along with 1 ml of DMEM, and then stabilized through incubating in a 5% CO2 incubator at 37° C. for 24 hours. α-MSH (Sigma Co, MO, USA), a melanocyte-stimulating hormone, was treated to each well, along with the peptide of SEQ ID NO: 8 in predetermined concentrations. After incubating the cells for 72 hours, the proteins were extracted therefrom. The obtained extracts were added to each well of a 96-well plate ([…] per each well) and then treated with a L-dihydroxyphenylalanine (L-DOPA) solution (100 μL) at 37° C. for 2 hours. The groups in which α-MSH (100 nM) and arbutin (0.01%) were respectively treated were used as positive controls. After 2 hours, the pictures thereof were taken and the tyrosinase activities thereof were measured at 490 nm with a microreader.
# MITF [2] = assay: RT-PCR, MITF gene expression in human epidermal melanocytes; type: cell-based; details: α-MSH, predetermined concentrations, 72 hours, RT-PCR (FIG. 6)
# Description: (§1) Human epidermal melanocytes were added to each well of a 6-well plate (1.5×10^5 cells per well), along with 2 ml of DMEM, and then stabilized through incubating in a 5% CO2 incubator at 37° C. for 24 hours. α-MSH (Sigma Co, MO, USA), a melanocyte-stimulating hormone, was treated to each well, along with the peptide of SEQ ID NO: 8 in predetermined concentrations. After incubating the cells for 72 hours, the total RNAs were extracted therefrom and then cDNAs were synthesized. The cDNA syntheses were carried out with a Reverse Transcription Master premix (Elpisbiotech, Daejeon, Korea). Using each synthesized cDNA as a template, reverse transcription polymerase chain reactions (RT-PCR) were carried out with a ROTOR Q GENE apparatus. Each RT-PCR solution was prepared by mixing 1 μl of cDNA, 10 μl of TOPreal qRT-PCR2X premix (Enzynomics, Daejeon, Korea), 2 μl of primer set (10 pmol) and 7 μl of D.W. The RT-PCR was carried out as follows: initially at 94° C. for 10 minutes; and then at 94° C. for 10 seconds, at 58° C. for 30 seconds, and at 72° C. for 1 minute; 40 cycles.
# tyrosinase (TYR) = assay: RT-PCR, tyrosinase gene expression in human epidermal melanocytes; type: cell-based; details: α-MSH, predetermined concentrations, 72 hours, RT-PCR (FIG. 6)
# Description: as §1
# GSK-3 = assay: Western blotting, GSK-3 phosphorylation in human epidermal melanocytes; type: cell-based; details: α-MSH, predetermined concentrations, 48 hours (FIG. 2)
# Description: (§2) The effects of the peptide fragment of the present invention on the β-catenin expression and the GSK-3 phosphorylation, which plays a critical role in the activation of Wnt signaling pathways, were evaluated using a Western blotting assay. Human epidermal melanocytes (Cascade Biologics, #C-0245C; Portland, Oreg., USA) were added to 2 ml of DMEM in each well of a 6-well microplate (1.5×10^5 cells per well). The cells were then stabilized through incubating in a 5% CO2 incubator at 37° C. for 24 hours. α-MSH (Sigma Co, MO, USA), a melanocyte-stimulating hormone, was treated to each well, along with the peptide fragment of the present invention (the peptide of SEQ ID NO: 8) in predetermined concentrations. After the cells were cultured for 48 hours, the proteins were extracted therefrom. The obtained extracts were subject to the Western blotting assay using an anti-β-catenin antibody (Santa Cruz Co., CA, USA) and an anti-pGSK-3 antibody (Cell SignalingTechnology, MA, USA), so as to measure the levels of β-catenin expression and GSK-3 phosphorylation changes. […] Therefore, it can be seen that the peptide fragments of the present invention can inhibit the Wnt signaling pathways in melanocytes.
# TRP-2 [3] = assay: RT-PCR, TRP-2 gene expression in human epidermal melanocytes; type: cell-based; details: α-MSH, predetermined concentrations, 72 hours, RT-PCR (FIG. 6)
# Description: as §1
# β-catenin = assay: Western blotting, β-catenin expression in human epidermal melanocytes; type: cell-based; details: α-MSH, predetermined concentrations, 48 hours (FIG. 2)
# Description: as §2
# tyrosinase [4] = assay: Western blotting, tyrosinase protein expression in human epidermal melanocytes; type: cell-based; details: α-MSH, predetermined concentrations, 24 hours (FIG. 5)
# Description: (§3) We evaluated the effects of the peptide fragment of the present invention on the protein expressions of the melanin-producing enzymes in human epidermal melanocytes, using a Western blotting assay. Human epidermal melanocytes (Cascade Biologics, #C-0245C; Portland, Oreg., USA) were added to each well of a 6-well microplate (1.5×10^5 cells per well), along with 2 ml of DMEM, and then stabilized through incubating in a 5% CO2 incubator at 37° C. for 24 hours. α-MSH (Sigma Co, MO, USA), a melanocyte-stimulating hormone, was treated to each well, along with the peptide fragment of the present invention (the peptide of SEQ ID NO: 8) in predetermined concentrations. After incubating the cells for 24 hours, the proteins were extracted therefrom. The obtained extracts were subject to the Western blotting assay using an anti-MITF antibody (ABcam, Ma, USA), an anti-tyrosinase antibody (Santa Cruz Co., CA, USA), an anti-TRP-1 antibody (Santa Cruz Co., CA, USA), and an anti-TRP-2 antibody (Santa Cruz Co., CA, USA), so as to measure the expression levels of MITF, tyrosinase, TRP-1, and TRP-2.
# TRP-1 [5] = assay: RT-PCR, TRP-1 gene expression in human epidermal melanocytes; type: cell-based; details: α-MSH, predetermined concentrations, 72 hours, RT-PCR (FIG. 6)
# Description: as §1
# [6] = system: mouse melanoma cell line B16F10; assay: inhibitory activity against melanin formation in B16F10; type: cell-based; details: B16F10, α-MSH 100 nM, peptide 0.1, 1, and 10 μM, 24 hours (FIG. 3)
# Description: B16F10 cells (Korean Cell Line Bank, Seoul) were added to each well of a 6-well microplate (1.5×10^5 cells per well), along with 2 ml of DMEM, and then incubated in a 5% CO2 incubator at 37° C. for 24 hours. α-MSH (Sigma Co, MO, USA) (100 nM) was treated to each well, along with the peptide of SEQ ID NO: 8 in the final concentrations of 0.1, 1, and 10 μM. The groups in which α-MSH (100 nM) and arbutin (0.01%) were respectively treated were used as positive controls. After additionally incubating the cells for 24 hours, the pictures of each culture ware taken so as to compare the respective levels of melanin formation.
# TRP-1 [7] = assay: Western blotting, TRP-1 protein expression in human epidermal melanocytes; type: cell-based; details: α-MSH, predetermined concentrations, 24 hours (FIG. 5)
# Description: as §3
# MITF and β-catenin = assay: in situ proximity ligation assay, binding between MITF and β-catenin; type: cell-based, mouse; details: B16F1 cells, similar methods to CREB test (FIG. 1c)
# Description: The effects of the peptide fragments of the present invention on the β-catenin activation, which plays a critical role in Wnt signaling pathways, were evaluated using an in situ proximity ligation assay. The evaluation was performed with a commercially available kit, i.e., DUOLINK II in situ kit from Olink Bioscience, Sweden.
# The mouse melanoma cell line B16F1 cells (Korean Cell Line Bank, Seoul) were added to 1 ml of DMEM in each well of a 24-well plate (5×10^4 cells per well), each well having a 12 mm glass in the bottom thereof. The cells were then stabilized through incubating in a 5% CO2 incubator at 37° C. for 24 hours. α-MSH (Sigma Co, MO, USA), a melanocyte-stimulating hormone (0.1 μM), and the peptide fragments of the present invention (1 μM) were treated to each well. The cells were cultured in a 5% CO2 incubator at 37° C. for 24 hours and then fixed with 4% paraformaldehyde. After a drop of the blocking solution was added to the cells on the 12 mm glass, the cells were then incubated at 37° C. for 30 minutes. Activation of the Wnt receptor increases the interaction between CREB (cyclic AMP response element-binding) and β-catenin. For determining the interaction levels thereof, the cells were treated with an anti-CREB polyclonal antibody (Santa Cruz Co., CA, USA) and an anti-β-catenin mouse monoclonal antibody (Santa Cruz Co., CA, USA) at 37° C. After incubating 30 minutes therefrom, the cells were treated with the PLA probe solution at 37° C. for 1 hour, with the ligation solution for 30 minutes, and then with the amplification solution for 100 minutes. After washing the cells with the washing buffer, the number of the red spots was measured with a confocal microscopy. In FIGS. 1a and 1b, the control means the group of no treatment and the α-MSH means the group treated with only α-MSH (i.e., without peptide treatment).
# And also, according to similar methods in the above, we investigated the inhibitory effects of the peptides of SEQ ID NOs: 5, 8, and 9 on the binding between MITF and β-catenin.
# MITF [8] = assay: Western blotting, MITF protein expression in human epidermal melanocytes; type: cell-based; details: α-MSH, predetermined concentrations, 24 hours (FIG. 5)
# Description: as §3
# TRP-2 [9] = assay: Western blotting, TRP-2 protein expression in human epidermal melanocytes; type: cell-based; details: α-MSH, predetermined concentrations, 24 hours (FIG. 5)
# Description: as §3
substance,measurement,setting,value
"Ala-Gln-Lys (AQK; Petide fragment) [SEQ ID NO: 8, Sfrp5-derived peptide fragment]",tyrosinase activity,tyrosinase [1],decreased in concentration-dependent manner
same,gene expression of MITF,MITF [2],decreased in concentration-dependent manner
same,gene expression of tyrosinase (TYR),tyrosinase (TYR),decreased in concentration-dependent manner
same,level of GSK-3 phosphorylation,GSK-3,decreased
same,gene expression of TRP-2,TRP-2 [3],decreased in concentration-dependent manner
same,level of β-catenin expression,β-catenin,decreased
same,expression level of tyrosinase (protein),tyrosinase [4],decreased
same,gene expression of TRP-1,TRP-1 [5],decreased in concentration-dependent manner
same,melanin formation (brown colors of cell culture),[6],decreased according to the concentrations of the peptide
same,expression level of TRP-1 (protein),TRP-1 [7],decreased
same,bindings between MITF and β-catenin,MITF and β-catenin,significantly decreased
same,expression level of MITF (protein),MITF [8],decreased
same,expression level of TRP-2 (protein),TRP-2 [9],decreased
"Cys-Glu-Ala-Val (CEAV; Peptide fragment) [SEQ ID NO: 9, Sfrp5-derived peptide fragment]",bindings between MITF and β-catenin,MITF and β-catenin,significantly decreased
"Lys-Ile-Gly (KIG; Petide fragment) [SEQ ID NO: 5, Sfrp5-derived peptide fragment]",bindings between MITF and β-catenin,MITF and β-catenin,significantly decreased
"α-MSH: a melanocyte-stimulating hormone (Sigma Co, MO, USA), used as stimulant [reference compound]",tyrosinase activity,tyrosinase [1],increased
same,gene expression of MITF,MITF [2],increased
same,gene expression of tyrosinase (TYR),tyrosinase (TYR),increased
same,gene expression of TRP-2,TRP-2 [3],increased
same,gene expression of TRP-1,TRP-1 [5],increased
